In ChEMBL document CHEMBL5036344, “Design and application of hybrid cyclic-linear peptide-doxorubicin conjugates as a strategy to overcome doxorubicin resistance and toxicity” (Eur J Med Chem, 2021):
Active and inactive are the calls of the source. No cut-off for these calls is given here.

What was measured:
MDA-MB-231 [1] = assay: Cytotoxicity against wild type human MDA-MB-231 cells assessed as reduction in cell viability incubated for 72 hrs by MTT assay; assay type: functional; details: read-out: LC50 (the source's name)
H9c2 [2] = assay: Cytotoxicity against rat H9c2 cells assessed as reduction in cell viability at 5 uM incubated for 24 hrs by MTT assay; assay type: cell-based; details: h9c2, 24 h
MDA-MB-231 [3] = assay: Cytotoxicity against doxorubicin resistant human MDA-MB-231 cells assessed as reduction in cell viability incubated for 72 hrs by MTT assay; assay type: functional; details: read-out: LC50 (the source's name)
LLC-PK1 [4] = assay: Cytotoxicity against pig LLC-PK1 cells assessed as reduction in cell viability at 5 uM incubated for 72 hrs by MTT assay; assay type: cell-based, Sus scrofa; details: llc-pk1, 72 h
Rattus norvegicus = organism: Rattus norvegicus; assay: Drug uptake in nucleus of rat H9c2 cells measured after 24 hrs by DAPI staining based confocal microscopy analysis; assay type: ADME, cell-based; details: h9c2, 24 h
CCRF-CEM [5] = assay: Cytotoxicity against human CCRF-CEM cells assessed as reduction in cell viability at 5 uM incubated for 72 hrs by MTT assay; assay type: functional
[6] = Drug uptake in nucleus of human SK-OV-3 cells incubated for 3 hrs by fluorescence microscopy; assay type: ADME, subcellular; details: sk-ov-3, 3 h
AGS [7] = assay: Cytotoxicity against human AGS cells assessed as reduction in cell viability at 5 uM incubated for 24 hrs by MTT assay; assay type: functional
AGS [8] = assay: Cytotoxicity against human AGS cells assessed as reduction in cell viability at 5 uM incubated for 72 hrs by MTT assay; assay type: functional
CCRF-CEM [9] = assay: Cytotoxicity against human CCRF-CEM cells assessed as reduction in cell viability at 5 uM incubated for 24 hrs by MTT assay; assay type: functional
MES-SA = assay: Cytotoxicity against human MES-SA cells assessed as reduction in cell viability incubated for 72 hrs by MTT assay; assay type: functional; details: read-out: LC50 (the source's name)
H9c2 [10] = assay: Cytotoxicity against rat H9c2 cells assessed as reduction in cell viability at 5 uM incubated for 96 hrs by MTT assay; assay type: cell-based; details: h9c2, 96 h
H9c2 [11] = assay: Cytotoxicity against rat H9c2 cells assessed as change in cell morphology at 5uM measured after 72 hours; assay type: cell-based; details: h9c2, 72 h
SK-OV-3 [12] = assay: Cytotoxicity against human SK-OV-3 cells assessed as reduction in cell viability at 5 uM incubated for 72 hrs by MTT assay; assay type: functional
LLC-PK1 [13] = assay: Cytotoxicity against pig LLC-PK1 cells assessed as reduction in cell viability at 5 uM incubated for 24 hrs by MTT assay; assay type: cell-based, Sus scrofa; details: llc-pk1, 24 h
H9c2 [14] = assay: Cytotoxicity against rat H9c2 cells assessed as reduction in cell viability at 5 uM incubated for 72 hrs by MTT assay; assay type: cell-based; details: h9c2, 72 h
SK-OV-3 [15] = assay: Cytotoxicity against human SK-OV-3 cells assessed as reduction in cell viability at 5 uM incubated for 24 hrs by MTT assay; assay type: functional
AGS [16] = assay: Cytotoxicity against human AGS cells assessed as reduction in cell viability at 5 to 10 uM incubated for 24 to 72 hrs by MTT assay; assay type: functional, cell-based; details: dose 5-10 µM, time 24-72 hrs
SK-OV-3 [17] = assay: Cytotoxicity against human SK-OV-3 cells assessed as reduction in cell viability at 25 uM incubated for 72 hrs by MTT assay; assay type: functional
CCRF-CEM [18] = assay: Cytotoxicity against human CCRF-CEM cells assessed as reduction in cell viability at 5 to 10 uM after 72 hrs incubation by MTT assay; assay type: functional; details: dose 5-10 µM
CCRF-CEM [19] = assay: Cytotoxicity against human CCRF-CEM cells assessed as reduction in cell viability at 25 uM incubated for 24 hrs by MTT assay; assay type: functional
AGS [20] = assay: Cytotoxicity against human AGS cells assessed as reduction in cell viability at 25 uM incubated for 72 hrs by MTT assay; assay type: functional
AGS [21] = assay: Cytotoxicity against human AGS cells assessed as reduction in cell viability at 50 uM incubated for 72 hrs by MTT assay; assay type: functional
LLC-PK1 [22] = assay: Cytotoxicity against pig LLC-PK1 cells assessed as reduction in cell viability at 5 to 50 uM incubated for 72 hrs by MTT assay; assay type: cell-based, Sus scrofa; details: llc-pk1, 72 h, dose 5-50 µM
SK-OV-3 [23] = assay: Cytotoxicity against human SK-OV-3 cells assessed as reduction in cell viability at 5 to 25 uM incubated for 24 hrs by MTT assay; assay type: functional; details: dose 5-25 µM
LLC-PK1 [24] = assay: Cytotoxicity against pig LLC-PK1 cells assessed as reduction in cell viability at 50 uM after 24 hrs of incubation by MTT assay; assay type: cell-based, Sus scrofa; details: llc-pk1, 24 h
[25] = Drug uptake in human SK-OV-3 cells at 5 uM incubated for 24 hrs by fluorescence microscopy; assay type: ADME, cell-based; details: sk-ov-3, 24 h
[26] = Drug uptake in human SK-OV-3 cells assessed as doxorubicin fluorescence incubated for 3 hrs by fluorescence microscopy; assay type: ADME, cell-based; details: sk-ov-3, 3 h
CCRF-CEM [27] = assay: Cytotoxicity against human CCRF-CEM cells assessed as reduction in cell viability at 5 to 10 uM incubated for 24 hrs by MTT assay; assay type: functional, cell-based; details: dose 5-10 µM
[28] = Drug uptake in human MDA-MB-231cells by flow cytometry in the presence of 50 ug/mL nystatin; assay type: ADME
H9c2 [29] = assay: Cytotoxicity against rat H9c2 cells assessed as reduction in cell viability at 25 uM incubated for 96 hrs by MTT assay; assay type: cell-based; details: h9c2, 96 h
[30] = Drug uptake in nucleus of human MDA-MB-231 cells by confocal microscopy in the presence of 50 ug/mL nystatin; assay type: ADME, subcellular
[31] = Drug uptake in rat H9c2 cells assessed as doxorubicin fluorescence measured at 24 to 72 hrs by fluorescence microscopy analysis; assay type: ADME, cell-based; details: time 24-72 hrs
SK-OV-3 [32] = assay: Cytotoxicity against human SK-OV-3 cells assessed as reduction in cell viability at 10 uM incubated for 72 hrs by MTT assay; assay type: functional
LLC-PK1 [33] = assay: Cytotoxicity against pig LLC-PK1 cells assessed as reduction in cell viability at 10 uM incubated for 24 to 72 hrs by MTT assay; assay type: cell-based, Sus scrofa; details: llc-pk1, 10 µM, time 24-72 hrs
AGS [34] = assay: Cytotoxicity against human AGS cells assessed as reduction in cell viability at 5 to 10 uM incubated for 24 hrs by MTT assay; assay type: functional, cell-based; details: dose 5-10 µM
[35] = Drug uptake in human MDA-MB-231 cells by flow cytometry in the presence of 100 uM chloroquine; assay type: ADME, cell-based
H9c2 [36] = assay: Cytotoxicity against rat H9c2 cells assessed as reduction in cell viability at 5 to 10 uM incubated upto 96 hrs by MTT assay; assay type: cell-based; details: h9c2, 96 h, dose 5-10 µM
[37] = Protein binding in 20% FBS by HPLC analysis; assay type: ADME, cell-free, Bos taurus; details: cattle, serum
[38] = Drug uptake in human MDA-MB-231 cells by flow cytometry in the presence of 2.5 mM methyl-beta-cyclodextrin; assay type: ADME, cell-based
[39] = Stability of compound in 10% FBS assessed as parent compound remaining after 24 hrs by HPLC analysis; assay type: ADME; details: cattle, 10% FBS (fetal bovine serum), read-out: Stability
[40] = Drug uptake in nucleus of human MDA-MB-231 cells by confocal microscopy in the presence of 6 ug/mL chloroquine; assay type: ADME, subcellular
[41] = Drug uptake in human MDA-MB-231 cells by flow cytometry in the presence of 30 uM chlorpromazine; assay type: ADME, cell-based
H9c2 [42] = assay: Cytotoxicity against rat H9c2 cells assessed as reduction in cell viability at 25 uM incubated for 24 hrs by MTT assay; assay type: cell-based; details: h9c2, 24 h
H9c2 [43] = assay: Cytotoxicity against rat H9c2 cells assessed as reduction in cell viability at 25 uM incubated for 72 hrs by MTT assay; assay type: cell-based; details: h9c2, 72 h
CCRF-CEM [44] = assay: Cytotoxicity against human CCRF-CEM cells assessed as reduction in cell viability at 5 to 25 uM after 72 hrs incubation by MTT assay; assay type: functional; details: dose 5-25 µM
LLC-PK1 [45] = assay: Cytotoxicity against pig LLC-PK1 cells assessed as reduction in cell viability at 50 uM by MTT assay; assay type: cell-based, Sus scrofa; details: llc-pk1, 50 µM
AGS [46] = assay: Cytotoxicity against human AGS cells assessed as reduction in cell viability incubated for 72 hrs by MTT assay; assay type: functional
[47] = Drug uptake in nucleus of human MDA-MB-231 cells by confocal microscopy in the presence of 20 ug/mL chlorpromazine; assay type: ADME, subcellular
[48] = Drug uptake in nucleus of human MDA-MB-231 cells by confocal microscopy in the presence of 50 ug/mL genistein; assay type: ADME, subcellular
CCRF-CEM [49] = assay: Cytotoxicity against human CCRF-CEM cells assessed as reduction in cell viability at 25 uM incubated for 72 hrs by MTT assay; assay type: functional
H9c2 [50] = assay: Cytotoxicity against rat H9c2 cells assessed as reduction in cell viability at 5 to 25 uM incubated upto 96 hrs by MTT assay; assay type: cell-based; details: h9c2, 96 h, dose 5-25 µM

## COc1cccc2c1C(=O)c1c(O)c3c(c(O)c1C2=O)C[C@@](O)(C(=O)CO)C[C@@H]3O[C@H]1C[C@H](N)[C@H](O)[C@H](C)O1 [DOXORUBICIN]
MDA-MB-231 [1]
  CC50: 0.45 µM
H9c2 [2]
  Activity: 20%
MDA-MB-231 [3]
  CC50: 2.3 µM
LLC-PK1 [4]
  Activity: 77%
Rattus norvegicus
  Drug uptake: Active
CCRF-CEM [5]
  Activity: 85%
[6]
  Drug uptake: Active
AGS [7]
  Activity: 46%
AGS [8]
  Activity: 87%
CCRF-CEM [9]
  Activity: 52%
MES-SA
  CC50: 4.3 µM
H9c2 [10]
  Activity: 44%
H9c2 [11]
  Activity: Toxic
SK-OV-3 [12]
  Activity: 33%
LLC-PK1 [13]
  Activity: 64%
H9c2 [14]
  Activity: 44%
SK-OV-3 [15]
  Activity: 27%

## N=C(N)NCCC[C@@H]1NC(=O)[C@H](CCCCNC(=O)[C@H](Cc2c[nH]c3ccccc23)NC(=O)[C@H](Cc2c[nH]c3ccccc23)NC(=O)[C@H](Cc2c[nH]c3ccccc23)NC(=O)[C@H](Cc2c[nH]c3ccccc23)NC(=O)[C@H](Cc2c[nH]c3ccccc23)NC(=O)[C@H](Cc2c[nH]c3ccccc23)NC(=O)[C@H](Cc2c[nH]c3ccccc23)NC(=O)CCN)NC(=O)[C@H](CCCNC(=N)N)NC(=O)[C@H](CCCNC(=N)N)NC(=O)[C@H](CCCNC(=N)N)NC(=O)[C@H](CCCNC(=N)N)NC1=O
AGS [16]
  Activity: inactive
SK-OV-3 [17]
  Activity: 19%
CCRF-CEM [18]
  Activity: 10%
CCRF-CEM [19]
  Activity: 68%
AGS [20]
  Activity: 24%
AGS [21]
  Activity: 87%
LLC-PK1 [22]
  Activity: Non-Toxic
SK-OV-3 [23]
  Activity: 21%
LLC-PK1 [24]
  Activity: 71%

## COc1cccc2c1C(=O)c1c(O)c3c(c(O)c1C2=O)C[C@@](O)(C(=O)COC(=O)CCCC(=O)NCCC(=O)N[C@@H](Cc1c[nH]c2ccccc12)C(=O)N[C@@H](Cc1c[nH]c2ccccc12)C(=O)N[C@@H](Cc1c[nH]c2ccccc12)C(=O)N[C@@H](Cc1c[nH]c2ccccc12)C(=O)N[C@@H](Cc1c[nH]c2ccccc12)C(=O)N[C@@H](Cc1c[nH]c2ccccc12)C(=O)N[C@@H](Cc1c[nH]c2ccccc12)C(=O)NCCCC[C@@H]1NC(=O)[C@H](CCCNC(=N)N)NC(=O)[C@H](CCCNC(=N)N)NC(=O)[C@H](CCCNC(=N)N)NC(=O)[C@H](CCCNC(=N)N)NC(=O)[C@H](CCCNC(=N)N)NC1=O)C[C@@H]3O[C@H]1C[C@H](N)[C@H](O)[C@H](C)O1
[25]
  Drug uptake: Active
SK-OV-3 [17]
  Activity: 48%
[26]
  Drug uptake: Not Active
CCRF-CEM [27]
  Activity: Active
[28]
  Drug uptake: Active
MDA-MB-231 [1]
  CC50: 0.56 µM
H9c2 [29]
  Activity: 39%
MDA-MB-231 [3]
  CC50: 36 µM
[30]
  Drug uptake: Active
[31]
  Drug uptake: Not Active
SK-OV-3 [32]
  Activity: 39%
LLC-PK1 [33]
  Activity: Non-Toxic
AGS [34]
  Activity: inactive
CCRF-CEM [19]
  Activity: 64%
[35]
  Drug uptake: Active
H9c2 [36]
  Activity: Non-Toxic
[37]
  Activity: Active
[38]
  Drug uptake: 72%
MES-SA
  CC50: 41 µM
[39]
  remaining at 24 h: 25%
[40]
  Drug uptake: Active
[41]
  Drug uptake: 78%
SK-OV-3 [12]
  Activity: 29%
H9c2 [42]
  Activity: 68%
H9c2 [43]
  Activity: 37%
CCRF-CEM [44]
  Activity: 84%
LLC-PK1 [45]
  Activity: 33%
AGS [46]
  Activity: 73%
[47]
  Drug uptake: Active
[48]
  Drug uptake: Active

## COc1cccc2c1C(=O)c1c(O)c3c(c(O)c1C2=O)C[C@@](O)(C(=O)CO)C[C@@H]3O[C@H]1C[C@H](NC(=N)CCCSSC[C@H](NC(C)=O)C(=O)N[C@@H](Cc2c[nH]c3ccccc23)C(=O)N[C@@H](Cc2c[nH]c3ccccc23)C(=O)N[C@@H](Cc2c[nH]c3ccccc23)C(=O)N[C@@H](Cc2c[nH]c3ccccc23)C(=O)N[C@@H](Cc2c[nH]c3ccccc23)C(=O)N[C@@H](Cc2c[nH]c3ccccc23)C(=O)N[C@@H](Cc2c[nH]c3ccccc23)C(=O)NCCCC[C@@H]2NC(=O)[C@H](CCCNC(=N)N)NC(=O)[C@H](CCCNC(=N)N)NC(=O)[C@H](CCCNC(=N)N)NC(=O)[C@H](CCCNC(=N)N)NC(=O)[C@H](CCCNC(=N)N)NC2=O)[C@H](O)[C@H](C)O1
CCRF-CEM [49]
  Activity: 79%
H9c2 [50]
  Activity: Non-Toxic
